# How the values were obtained:
# [1] = test system: human HT1080 fibrosarcoma cells; parameters: species or system athymic mice; conditions: mouse, in vivo
# [2] = test system: human SW620 colon carcinoma cells; parameters: species or system athymic mice; conditions: mouse, in vivo
SMILES,"Complete Tumor Responses (CR), % [1]","Durable CRs, % [2]"
"O=c1[nH]cc(F)c(=O)[nH]1 [5-FU, 5-fluorouracil]",0%,0%
"CCc1c2c(nc3ccc(OC(=O)N4CCC(N5CCCCC5)CC4)cc13)-c1cc3c(c(=O)n1C2)COC(=O)[C@]3(O)CC [Irinotecan, 7-ethyl-10-[4-(1-piperidino)-1-piperidino]-carbonyloxycamptothecin]",–,0%
